Measured values as given in PMC3582657 (Clinical pharmacology and therapeutics, 2008).
Where “and” joins values, the source holds several entries; their conditions need not be identical. Equal entries are not always repeated. Where two headings read alike, the source gives them in different places. Each block holds one compound with its values, some of them ahead of it.

Assays:
[1] = multiple doses of rifampin; cited from earlier work
[2] = Safety assessment in the clinical study; assay type: in vivo, human
blood glucose [3] = conditions: concomitant rifampin versus control; cited from earlier work
blood glucose [4] = assay: Blood glucose level after glyburide dosing; assay type: in vivo, human; conditions: rifampin IV (Treatment C) phase in comparison to other treatment groups; repeated ANOVA p<0.0001
[5] = assay type: in vivo, human
[6] = mean±SD; for CL renal: human, urine, CLr (renal clearance)
[7] = background statement, no reference given; cited from earlier work
P-glycoprotein (P-gp) = conditions: cited from earlier work
[8] = Treatment A: 1.25 mg oral glyburide alone (control), mean±SD, n=9
[9] = Treatment A: 1.25 mg oral glyburide alone (control), median and range
[10] = Treatment B (ciprofloxacin IV phase) vs Treatment A
[11] = Treatment B: 200 mg iv ciprofloxacin just before 1.25 mg oral glyburide, median and range
[12] = Treatment C (rifampin IV phase) vs Treatment A
[13] = Treatment C: single 600 mg iv rifampin then 1.25 mg oral glyburide, mean±SD, n=9
[14] = Treatment D (rifampin IV after oral induction) compared with Treatment E
[15] = Treatment D (rifampin IV after oral induction) compared with control Treatment A
[16] = Treatment D (rifampin IV/PO phase) vs Treatment A
[17] = Treatment D: 600 mg oral rifampin daily for 6 days, next day 600 mg iv rifampin then 1.25 mg oral glyburide, median and range
[18] = Treatment E (rifampin PO phase) vs Treatment A
[19] = single IV infusion of rifampin (Treatment C) compared with control Treatment A
[20] = single IV infusion of rifampin (Treatment C) vs control Treatment A
[21] = Treatment A: 1.25 mg oral glyburide alone (control), plasma, mean±SD, n=9
[22] = iv rifampin effect under induced conditions (Treatment D / Treatment E)
[23] = iv rifampin effect under noninduced conditions (Treatment C / Treatment A)

- CL/F [5, 8]: 10.1±3.1 mI/h/kg
- Vss/F [5, 8]: 49±33 mI/kg
- Tmax [5, 9]: 3(2–4) h
- AUC0-∞, mean % of control [5, 10]: 107 % of control
- Cmax, mean % of control [5, 10]: 95 % of control
- MRT, mean % of control [5, 10]: 119 % of control
- t1/2, mean % of control [5, 10]: 108 % of control
- Tmax [5, 11]: 3(2–6) h
- AUC0-∞, mean % of control [5, 12]: 225 % of control
- Cmax, mean % of control [5, 12]: 181 % of control
- MRT, mean % of control [5, 12]: 84 % of control
- t1/2, mean % of control [5, 12]: 84 % of control
- CL/F [5, 13]: 4.59±1.20 mI/h/kg
- Vss/F [5, 13]: 16±7 mI/kg
- increase in AUC [5, 14]: 120±56%
- increase in Cmax [5, 14]: 92±76%
- decrease in AUC0-∞ [5, 15]: 22±21% and 22%
- decrease in Cmax [5, 15]: 9±0.3% and 8%
- AUC0-∞, mean % of control [5, 16]: 78 % of control
- Cmax, mean % of control [5, 16]: 91 % of control
- MRT, mean % of control [5, 16]: 61 % of control
- Tmax [5, 17]: 3(2–4) h
- AUC0-∞, mean % of control [5, 18]: 37 % of control
- Cmax, mean % of control [5, 18]: 52 % of control
- MRT, mean % of control [5, 18]: 53 % of control
- change in any pharmacokinetic parameter ([5]; ciprofloxacin co-administered with glyburide (Treatment B) vs Treatment A): No significant changes in any parameter
- Tmax ([5]; human, plasma, oral): 3 h
- Tmax ([5]; human, plasma, po, 1.25 mg): 3 h
- AUC(0-inf) ([5]; human, plasma, po, 1.25 mg, AUC0-∞, Treatment A: 1.25 mg oral glyburide alone (control), plasma, mean±SD, n=9): 1890 ± 682 ng·h/mL
- Cmax ([5]; human, plasma, po, 1.25 mg, Cmax, Treatment A: 1.25 mg oral glyburide alone (control), plasma, mean±SD, n=9): 384 ± 135 ng/mL
- MRT ([5]; human, plasma, po, 1.25 mg, MRT, Treatment A: 1.25 mg oral glyburide alone (control), mean±SD, n=9): 4.5 ± 2 h
- half-life ([5]; human, plasma, po, 1.25 mg, t1/2, Treatment A: 1.25 mg oral glyburide alone (control), mean±SD, n=9): 4.7 ± 1.3 h
- increase in AUC0-∞ [5, 19]: 125± 51.5% and 125%
- increase in Cmax [5, 19]: 81 ± 28% and 81%
- change in apparent terminal half-life (t1/2) ([5]; single IV infusion of rifampin (Treatment C) vs control): did not change
- decrease in oral clearance (CL/F) [5, 20]: 53 ± 13%
- decrease in oral steady-state volume of distribution (Vss/F) [5, 20]: 60 ± 29%
- 0–12h accumulated urine excretion ([6]; Treatment A, glyburide control): 1.8 ± 1.1 µg
- 0–12h accumulated urine excretion ([6]; Treatment B, ciprofloxacin IV): 1.7 ± 0.6 µg
- 0–12h accumulated urine excretion ([6]; Treatment C, rifampin IV): 3.9 ± 1.3 µg
- 0–12h accumulated urine excretion ([6]; Treatment D, rifampin IV/PO): 1.4 ± 0.5 µg
- 0–12h accumulated urine excretion ([6]; Treatment E, rifampin PO): 1.3 ± 0.7 µg
- CL renal ([6]; iv, Treatment B, ciprofloxacin IV): 0.36 mL/day/kg
- CL renal ([6]; iv, Treatment C, rifampin IV): 0.384 mL/day/kg
- CL renal ([6]; oral, 1.25 mg, Treatment A, glyburide control): 0.408 mL/day/kg
- CL renal ([6]; oral, Treatment D, rifampin IV/PO): 0.384 mL/day/kg
- CL renal ([6]; po, 1.25 mg, Treatment E, rifampin PO): 0.744 mL/day/kg
SMILES: COc1ccc(Cl)cc1C(=O)NCCc1ccc(S(=O)(=O)NC(=O)NC2CCCCC2)cc1 [glyburide]
- decrease in AUC of glyburide by rifampin [1]: 39%
- decrease in maximal concentration (Cmax) of glyburide by rifampin [1]: 22%
- serious adverse events ([2]; during or after the study, all treatments): No serious adverse events
- change in blood glucose decremental AUC(0–7) (net area below baseline) (blood glucose [3]): −44%
- change in maximum decrease in the blood glucose concentration (blood glucose [3]): −36%
- decremental AUC0–12 of blood glucose (blood glucose [4]): statistically significant decrease

- AUCm/AUCp (AUC ratio of 4-hydroxyglyburide to glyburide) ([5]; Treatment A, glyburide control, mean±SD): 3.67±1.03%
- MRT [5, 8]: 1.6 ± 0.9 h
- t1/2 [5, 8]: 4.2 ± 1.7 h
- Tmax [5, 9]: 4(3–6) h
- AUC0-∞ [5, 21]: 66.0 ± 23.2 ng·h/mL
- Cmax [5, 21]: 9.67 ± 2.51 ng/mL
- AUC0-∞, mean % of control [5, 10]: 101 % of control
- Cmax, mean % of control [5, 10]: 99 % of control
- MRT, mean % of control [5, 10]: 89 % of control
- t1/2, mean % of control [5, 10]: 115 % of control
- AUCm/AUCp (AUC ratio of 4-hydroxyglyburide to glyburide) ([5]; Treatment B, ciprofloxacin IV, mean±SD): 3.34±0.37%
- Tmax [5, 11]: 4(3–8) h
- AUC0-∞, mean % of control [5, 12]: 145 % of control
- Cmax, mean % of control [5, 12]: 134 % of control
- MRT, mean % of control [5, 12]: 121 % of control
- t1/2, mean % of control [5, 12]: 102 % of control
- AUCm/AUCp (AUC ratio of 4-hydroxyglyburide to glyburide) ([5]; Treatment C, rifampin IV, mean±SD): 2.36±0.61 %
- MRT [5, 13]: 1.5 ± 0.8 h
- t1/2 [5, 13]: 3.8 ± 0.7 h
- Tmax ([5]; Treatment C: single 600 mg iv rifampin then 1.25 mg oral glyburide, median and range): 4(3–6) h
- increase in AUC [5, 14]: 67±44%
- increase in Cmax [5, 14]: 49±44%
- decrease in Cmax [5, 15]: not significant
- AUC0-∞, mean % of control [5, 16]: 54 % of control
- Cmax, mean % of control [5, 16]: 81 % of control
- MRT, mean % of control [5, 16]: 77 % of control
- decrease in mean residence time (MRT) ([5]; Treatment D versus control Treatment A): 23%
- AUCm/AUCp (AUC ratio of 4-hydroxyglyburide to glyburide) ([5]; Treatment D, rifampin IV/PO, mean±SD): 2.52±0.35 %
- Tmax [5, 17]: 4(3–6) h
- AUC0-∞, mean % of control [5, 18]: 33 % of control
- Cmax, mean % of control [5, 18]: 56 % of control
- MRT, mean % of control [5, 18]: 41 % of control
- AUCm/AUCp (AUC ratio of 4-hydroxyglyburide to glyburide) ([5]; Treatment E, rifampin PO, mean±SD): 3.36±0.60%
- AUC0-∞, ratio D to E [5, 22]: 1.7±0.4
- Cmax, ratio D to E [5, 22]: 1.5±0.4
- MRT, ratio D to E [5, 22]: 1.3±1.3
- AUC0-∞, ratio C to A [5, 23]: 1.5±0.4
- Cmax, ratio C to A [5, 23]: 1.3±0.5
- MRT, ratio C to A [5, 23]: 1.2±0.9
- increase in AUC0-∞ [5, 19]: 45 ± 37%
- increase in Cmax [5, 19]: 34 ± 47%
- 0–12h accumulated urine excretion ([6]; Treatment A, glyburide control): 358 ± 107 µg
- CLr (renal clearance) ([6]; Treatment A, glyburide control): 2200 ± 619 mL/day/kg
- 0–12h accumulated urine excretion ([6]; Treatment B, ciprofloxacin IV): 325 ± 77 µg
- CLr (renal clearance) ([6]; Treatment B, ciprofloxacin IV): 2220 ± 564 mL/day/kg
- 0–12h accumulated urine excretion ([6]; Treatment C, rifampin IV): 457 ± 72 µg
- CLr (renal clearance) ([6]; Treatment C, rifampin IV): 2120 ± 629 mL/day/kg
- 0–12h accumulated urine excretion ([6]; Treatment D, rifampin IV/PO): 208±56 ^** ug
- CLr (renal clearance) ([6]; Treatment D, rifampin IV/PO): 2100 ± 401 mL/day/kg
- 0–12h accumulated urine excretion ([6]; Treatment E, rifampin PO): 135 ± 40 µg
- CLr (renal clearance) ([6]; Treatment E, rifampin PO): 2200 ± 665 mL/day/kg
SMILES: COc1ccc(Cl)cc1C(=O)NCCc1ccc(S(=O)(=O)NC(=O)NC2CCC(O)CC2)cc1 (stereo not drawn) [4-hydroxyglyburide, 4-trans-hydroxyglyburide]
- hypoglycemic activity (potency) retained relative to the parent compound [7]: 75%

SMILES: CO[C@H]1/C=C/O[C@@]2(C)Oc3c(C)c(O)c4c(O)c(c(/C=N/N5CCN(C)CC5)c(O)c4c3C2=O)NC(=O)/C(C)=C\C=C\[C@H](C)[C@H](O)[C@@H](C)[C@@H](O)[C@@H](C)[C@H](OC(C)=O)[C@@H]1C [rifampin]
- adverse event leading to withdrawal ([2]; one subject, after visit 3): allergy to rifampin
- inhibition of Pgp (P-glycoprotein (P-gp)): does not inhibit Pgp

SMILES: COc1ccc(Cl)cc1C(=O)NCCc1ccc(S(=O)(=O)NC(=O)N[C@@H]2CCC[C@H](O)C2)cc1 (relative stereo) [3-cis-hydroxyglyburide]
- hypoglycemic activity (potency) retained relative to the parent compound [7]: 50%
